Results on 21 compounds are retold here after PubChem BioAssay (NCI).

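Five concentrations, 48 hours, 96-well plates. At the GI50, growth is halved. TGI is the concentration that stops growth completely.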

The test system of one experiment is CAKI-1 renal. Briefly: NCI anticancer screen, dose series, 48 h.
On to `N=C(N)c1ccc(-c2ccc(-c3cc(Cl)cc(Cl)c3)o2)nc1`, for which the GI50 is 1.76 µM and the TGI was determined as 3.35 µM.

In turn, `CCOC(=O)CSc1nc(N)c2c(-c3ccc(OC)c(OC)c3)c3c(nc2n1)CCCC3` returned a TGI of over 100 µM.

On to `CNC(=O)OC(C)CN1c2ccccc2Sc2ccc(Cl)cc21` (stereo not given), for which the TGI was over 10 µM.

Consider `O=C(CCCCCCC(=O)Nc1ccc(N(CCCl)CCCl)cc1)NO`, for which the GI50 was 1.2 µM and the TGI is 11.2 µM.

For `CN1CC[C@@]2(c3cccc(O)c3)CC(=O)/C(=C/c3ccccc3)[C@H]1C2`, the TGI amounted to 15.4 µM.

`O=C(N/N=C(/c1ccccc1)C(F)(F)F)c1ccncc1`: the TGI was over 100 µM.

Take `ONc1ncnc2nc[nH]c12`: the TGI is over 100 µM.

Turning to `O=S(=O)(O)c1ccc2cccc(N=Nc3c(O)ccc4ccccc34)c2c1`, the TGI is over 100 µM.

Take `COc1ccc2nc(-c3ccc(-c4noc(-c5cc(OC)c(OC)c(OC)c5)n4)cc3)[nH]c2c1`: the GI50 is 23.4 µM and the TGI was found to be 54.9 µM.

In the case of `COc1ccc(/C(=C2/O[C@@H]([C@H]3COC(C)(C)O3)[C@H]3OC(C)(C)O[C@@H]23)c2cc(OC)c(OC)c(OC)c2)cc1O`, the GI50 was 14.8 µM and the TGI worked out at 42.2 µM.

`Cn1c(=O)c2c(nc(-n3nc(-c4ccc(Cl)cc4)cc3N)n2C)n(C)c1=O`: the TGI was over 100 µM.

Take `N=c1c2c(C(N)=O)cn(C3OC(CO)C(O)C3O)c2ncn1O` (stereo not given): the TGI was 0.399 µM.

As for `CCS(=O)(=O)Nc1ccc(Nc2c3ccccc3nc3ccccc23)c(OC)c1`, the TGI is 4.08 µM.

Regarding `Cc1nc(N)nc(N)c1-c1ccc(Cl)c(Cl)c1`, the TGI was over 100 µM.

On to `Cc1cccc2nc3c(C(=O)NCCN(C)C)cccc3cc12`, for which the TGI amounted to 8.49 µM.

In turn, `C[C@]12CC[C@@H]3c4ccc(OP(=O)(O)O)cc4CC[C@H]3[C@@H]1CCC2=O` displayed a TGI of over 100 µM.

As to `COc1ccc2nc(N/N=C/C(C)=N/Nc3cc(C)c4cc(OC)ccc4n3)cc(C)c2c1`, the TGI was determined as 76.1 µM.

With `CN(C)CC(=O)Nc1ccc(Cn2nnc3c2C(=O)c2nnn(Cc4ccc(NC(=O)CN(C)C)cc4)c2C3=O)cc1`, the GI50 was 2.59 µM and the TGI was over 100 µM.

A further experiment deals with RPMI-8226 leukemia. In words: NCI anticancer screen, dose series, 48 h.
Take `N=C(N)c1ccc(-c2ccc(-c3cc(Cl)cc(Cl)c3)o2)nc1`: the GI50 is 2.03 µM and the TGI was 4.33 µM.

In turn, `CCOC(=O)CSc1nc(N)c2c(-c3ccc(OC)c(OC)c3)c3c(nc2n1)CCCC3` yielded a TGI of over 100 µM.

Compound `CNC(=O)OC(C)CN1c2ccccc2Sc2ccc(Cl)cc21` (stereo not given) gave a TGI of over 10 µM.

With `O=C(CCCCCCC(=O)Nc1ccc(N(CCCl)CCCl)cc1)NO`, the GI50 is 3.02 µM and the TGI was over 100 µM.

As for `CN1CC[C@@]2(c3cccc(O)c3)CC(=O)/C(=C/c3ccccc3)[C@H]1C2`, the TGI was determined as 7.04 µM.

`O=C(N/N=C(/c1ccccc1)C(F)(F)F)c1ccncc1` showed a TGI of over 100 µM.

`ONc1ncnc2nc[nH]c12` returned a TGI of over 100 µM.

Regarding `COc1ccc2nc(-c3ccc(-c4noc(-c5cc(OC)c(OC)c(OC)c5)n4)cc3)[nH]c2c1`, the GI50 is 6.02 µM and the TGI is over 100 µM.

Consider `COc1ccc(/C(=C2/O[C@@H]([C@H]3COC(C)(C)O3)[C@H]3OC(C)(C)O[C@@H]23)c2cc(OC)c(OC)c(OC)c2)cc1O`, for which the GI50 was 4.82 µM and the TGI turned out to be 34 µM.

Compound `Cn1c(=O)c2c(nc(-n3nc(-c4ccc(Cl)cc4)cc3N)n2C)n(C)c1=O` displayed a TGI of over 100 µM.

On to `CCS(=O)(=O)Nc1ccc(Nc2c3ccccc3nc3ccccc23)c(OC)c1`, for which the TGI worked out at 8.24 µM.

Take `Cc1nc(N)nc(N)c1-c1ccc(Cl)c(Cl)c1`: the TGI is over 100 µM.

In the case of `Cc1cccc2nc3c(C(=O)NCCN(C)C)cccc3cc12`, the TGI turned out to be 4.19 µM.

`C[C@]12CC[C@@H]3c4ccc(OP(=O)(O)O)cc4CC[C@H]3[C@@H]1CCC2=O` came in with a TGI of over 100 µM.

Compound `CCSCCC(N)C(=O)O` (stereo not given) had a TGI of over 100 µM.

`COc1ccc2nc(N/N=C/C(C)=N/Nc3cc(C)c4cc(OC)ccc4n3)cc(C)c2c1` showed a TGI of 19.2 µM.

As for `CN(C)CC(=O)Nc1ccc(Cn2nnc3c2C(=O)c2nnn(Cc4ccc(NC(=O)CN(C)C)cc4)c2C3=O)cc1`, the GI50 is 0.225 µM and the TGI is 0.783 µM.

The subject of a further experiment is LOX IMVI melanoma. In words: NCI anticancer screen, dose series, 48 h.
Turning to `CCN(CC)CC(C)Nc1ccc([N+](=O)[O-])c2sc3ccccc3c(=O)c12` (stereo not given), the GI50 was 1.02 µM and the TGI was 2.39 µM.

For `N=C(N)c1ccc(-c2ccc(-c3cc(Cl)cc(Cl)c3)o2)nc1`, the GI50 is 1.77 µM and the TGI came out at 3.41 µM.

The compound `CCOC(=O)CSc1nc(N)c2c(-c3ccc(OC)c(OC)c3)c3c(nc2n1)CCCC3` gave a TGI of over 100 µM.

`CNC(=O)OC(C)CN1c2ccccc2Sc2ccc(Cl)cc21` (stereo not given) registered a TGI of over 10 µM.

With `O=C(CCCCCCC(=O)Nc1ccc(N(CCCl)CCCl)cc1)NO`, the GI50 is 1.34 µM and the TGI came to 3.78 µM.

On to `CN1CC[C@@]2(c3cccc(O)c3)CC(=O)/C(=C/c3ccccc3)[C@H]1C2`, for which the TGI is 3.46 µM.

In turn, `CCCc1[nH]c(SCCCCCCCCSc2nc(-c3ccc(F)cc3)c(CCC)[nH]2)nc1-c1ccc(F)cc1` had a TGI of over 100 µM.

Consider `COc1ccc2nc(-c3ccc(-c4noc(-c5cc(OC)c(OC)c(OC)c5)n4)cc3)[nH]c2c1`, for which the GI50 is 13.3 µM and the TGI came out at 34.6 µM.

Regarding `COc1ccc(/C(=C2/O[C@@H]([C@H]3COC(C)(C)O3)[C@H]3OC(C)(C)O[C@@H]23)c2cc(OC)c(OC)c(OC)c2)cc1O`, the GI50 was 5.93 µM and the TGI is 22.8 µM.

The compound `N=c1c2c(C(N)=O)cn(C3OC(CO)C(O)C3O)c2ncn1O` (stereo not given) yielded a TGI of 0.438 µM.

As for `CCS(=O)(=O)Nc1ccc(Nc2c3ccccc3nc3ccccc23)c(OC)c1`, the TGI is 4.26 µM.

Consider `Cc1nc(N)nc(N)c1-c1ccc(Cl)c(Cl)c1`, for which the TGI was over 100 µM.

As to `Cc1cccc2nc3c(C(=O)NCCN(C)C)cccc3cc12`, the TGI is 4.76 µM.

`C[C@]12CC[C@@H]3c4ccc(OP(=O)(O)O)cc4CC[C@H]3[C@@H]1CCC2=O` came in with a TGI of over 100 µM.

As for `CCSCCC(N)C(=O)O` (stereo not given), the TGI was over 100 µM.

Turning to `COc1ccc2nc(N/N=C/C(C)=N/Nc3cc(C)c4cc(OC)ccc4n3)cc(C)c2c1`, the TGI turned out to be 54.8 µM.

A further experiment has as its system OVCAR-5 ovarian. In words: NCI anticancer screen, dose series, 48 h.
Consider `CCN(CC)CC(C)Nc1ccc([N+](=O)[O-])c2sc3ccccc3c(=O)c12` (stereo not given), for which the GI50 is 3.63 µM and the TGI is over 100 µM.

`N=C(N)c1ccc(-c2ccc(-c3cc(Cl)cc(Cl)c3)o2)nc1`: the GI50 was 1.73 µM and the TGI was determined as 3.43 µM.

In the case of `CCOC(=O)CSc1nc(N)c2c(-c3ccc(OC)c(OC)c3)c3c(nc2n1)CCCC3`, the TGI is over 100 µM.

As to `CNC(=O)OC(C)CN1c2ccccc2Sc2ccc(Cl)cc21` (stereo not given), the TGI was over 10 µM.

Turning to `O=C(CCCCCCC(=O)Nc1ccc(N(CCCl)CCCl)cc1)NO`, the GI50 was 2.56 µM and the TGI was 30.6 µM.

As for `CN1CC[C@@]2(c3cccc(O)c3)CC(=O)/C(=C/c3ccccc3)[C@H]1C2`, the TGI came out at 32.2 µM.

As to `O=C(N/N=C(/c1ccccc1)C(F)(F)F)c1ccncc1`, the TGI is over 100 µM.

The compound `ONc1ncnc2nc[nH]c12` displayed a TGI of over 100 µM.

Compound `CCCc1[nH]c(SCCCCCCCCSc2nc(-c3ccc(F)cc3)c(CCC)[nH]2)nc1-c1ccc(F)cc1` displayed a TGI of over 100 µM.

`O=S(=O)(O)c1ccc2cccc(N=Nc3c(O)ccc4ccccc34)c2c1` showed a TGI of over 100 µM.

On to `COc1ccc2nc(-c3ccc(-c4noc(-c5cc(OC)c(OC)c(OC)c5)n4)cc3)[nH]c2c1`, for which the GI50 was 16.7 µM and the TGI was 53.8 µM.

Take `COc1ccc(/C(=C2/O[C@@H]([C@H]3COC(C)(C)O3)[C@H]3OC(C)(C)O[C@@H]23)c2cc(OC)c(OC)c(OC)c2)cc1O`: the GI50 is 59.6 µM and the TGI was over 100 µM.

On to `Cn1c(=O)c2c(nc(-n3nc(-c4ccc(Cl)cc4)cc3N)n2C)n(C)c1=O`, for which the TGI is over 100 µM.

The compound `N=c1c2c(C(N)=O)cn(C3OC(CO)C(O)C3O)c2ncn1O` (stereo not given) yielded a TGI of 1.3 µM.

As to `CCS(=O)(=O)Nc1ccc(Nc2c3ccccc3nc3ccccc23)c(OC)c1`, the TGI came out at 19.4 µM.

With `Cc1nc(N)nc(N)c1-c1ccc(Cl)c(Cl)c1`, the TGI is over 100 µM.

Regarding `Cc1cccc2nc3c(C(=O)NCCN(C)C)cccc3cc12`, the TGI came out at 6.59 µM.

As for `C[C@]12CC[C@@H]3c4ccc(OP(=O)(O)O)cc4CC[C@H]3[C@@H]1CCC2=O`, the TGI was over 100 µM.

Compound `CCSCCC(N)C(=O)O` (stereo not given) displayed a TGI of over 100 µM.

The compound `COc1ccc2nc(N/N=C/C(C)=N/Nc3cc(C)c4cc(OC)ccc4n3)cc(C)c2c1` showed a TGI of 49.5 µM.

`CN(C)CC(=O)Nc1ccc(Cn2nnc3c2C(=O)c2nnn(Cc4ccc(NC(=O)CN(C)C)cc4)c2C3=O)cc1`: the GI50 is 0.234 µM and the TGI came to 0.578 µM.

The test system of the next experiment is NCI-H460 lung. In words: NCI anticancer screen, dose series, 48 h.
For the compound `CCN(CC)CC(C)Nc1ccc([N+](=O)[O-])c2sc3ccccc3c(=O)c12` (stereo not given), the GI50 is 0.401 µM and the TGI was determined as 2.14 µM.

On to `N=C(N)c1ccc(-c2ccc(-c3cc(Cl)cc(Cl)c3)o2)nc1`, for which the GI50 was 1.9 µM and the TGI was 3.63 µM.

With `CCOC(=O)CSc1nc(N)c2c(-c3ccc(OC)c(OC)c3)c3c(nc2n1)CCCC3`, the TGI was over 100 µM.

As for `CNC(=O)OC(C)CN1c2ccccc2Sc2ccc(Cl)cc21` (stereo not given), the TGI is over 10 µM.

As for `O=C(CCCCCCC(=O)Nc1ccc(N(CCCl)CCCl)cc1)NO`, the GI50 is 0.598 µM and the TGI was determined as 12.9 µM.

With `CN1CC[C@@]2(c3cccc(O)c3)CC(=O)/C(=C/c3ccccc3)[C@H]1C2`, the TGI was 18.7 µM.

Take `O=C(N/N=C(/c1ccccc1)C(F)(F)F)c1ccncc1`: the TGI was over 100 µM.

As to `ONc1ncnc2nc[nH]c12`, the TGI is over 100 µM.

In the case of `CCCc1[nH]c(SCCCCCCCCSc2nc(-c3ccc(F)cc3)c(CCC)[nH]2)nc1-c1ccc(F)cc1`, the TGI is over 100 µM.

`O=S(=O)(O)c1ccc2cccc(N=Nc3c(O)ccc4ccccc34)c2c1` had a TGI of over 100 µM.

`COc1ccc2nc(-c3ccc(-c4noc(-c5cc(OC)c(OC)c(OC)c5)n4)cc3)[nH]c2c1`: the GI50 is 4.6 µM and the TGI was 22.5 µM.

On to `COc1ccc(/C(=C2/O[C@@H]([C@H]3COC(C)(C)O3)[C@H]3OC(C)(C)O[C@@H]23)c2cc(OC)c(OC)c(OC)c2)cc1O`, for which the GI50 is 29.3 µM and the TGI is over 100 µM.

`Cn1c(=O)c2c(nc(-n3nc(-c4ccc(Cl)cc4)cc3N)n2C)n(C)c1=O` gave a TGI of over 100 µM.

Take `N=c1c2c(C(N)=O)cn(C3OC(CO)C(O)C3O)c2ncn1O` (stereo not given): the TGI was over 20.4 µM.

`CCS(=O)(=O)Nc1ccc(Nc2c3ccccc3nc3ccccc23)c(OC)c1`: the TGI was found to be 1.19 µM.

`Cc1nc(N)nc(N)c1-c1ccc(Cl)c(Cl)c1`: the TGI is over 92.1 µM.

For `Cc1cccc2nc3c(C(=O)NCCN(C)C)cccc3cc12`, the TGI is 4.18 µM.

Compound `C[C@]12CC[C@@H]3c4ccc(OP(=O)(O)O)cc4CC[C@H]3[C@@H]1CCC2=O` came in with a TGI of over 100 µM.

Take `CCSCCC(N)C(=O)O` (stereo not given): the TGI was over 100 µM.

`COc1ccc2nc(N/N=C/C(C)=N/Nc3cc(C)c4cc(OC)ccc4n3)cc(C)c2c1` returned a TGI of 32.5 µM.

Regarding `CN(C)CC(=O)Nc1ccc(Cn2nnc3c2C(=O)c2nnn(Cc4ccc(NC(=O)CN(C)C)cc4)c2C3=O)cc1`, the GI50 is 0.167 µM and the TGI is 1.2 µM.
